Test results taken from the supplement of paper PMC10307832.

Tests used:
Experiment in all cases: relative viability (nuclei count vs DMSO), 5 days (fraction); higher = more cells survive
[1] = compound: O=C(O)c1ccc2c(c1)nc(Nc1cccc(Cl)c1)c1ccncc12 [Silmitasertib] + C[C@]1(O)C[C@@H](c2nc(-c3ccc4ccc(-c5ccccc5)nc4c3)c3c(N)nccn32)C1 [Linsitinib] (partner 1 µM)
Method in brief: (§1)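 Medians of duplicate plates are given as relative viability. That measure is the nuclei count in treated wells divided by the count in vehicle wells. Counts were taken on 4× images of lung cancer cell lines in 1536-well plates, 5 days after pin-tool dosing the day after seeding with one drug alone or a fixed anchor-drug dose plus five library-drug doses (not always all listed) in √10 steps.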

[2] = compound: O=C(O)c1ccc2c(c1)nc(Nc1cccc(Cl)c1)c1ccncc12 [Silmitasertib] + C[C@@H](Oc1cc(-c2cnn(C3CCNCC3)c2)cnc1N)c1c(Cl)ccc(F)c1Cl [Crizotinib] (partner 1 µM)
Method in brief: as §1

[3] = compound: O=C(O)c1ccc2c(c1)nc(Nc1cccc(Cl)c1)c1ccncc12 [Silmitasertib] + COc1cc2c(Oc3ccc(NC(=O)C4(C(=O)Nc5ccc(F)cc5)CC4)cc3F)ccnc2cc1OCCCN1CCOCC1 [Foretinib] (partner 0.25 µM)
Method in brief: as §1

[4] = compound: O=C(O)c1ccc2c(c1)nc(Nc1cccc(Cl)c1)c1ccncc12 [Silmitasertib] + Cc1nc(NC(=O)N2CCC[C@H]2C(N)=O)sc1-c1ccnc(C(C)(C)C(F)(F)F)c1 [Alpelisib] (partner 2 µM)
Method in brief: as §1

[5] = compound: O=C(O)c1ccc2c(c1)nc(Nc1cccc(Cl)c1)c1ccncc12 [Silmitasertib] + CS(=O)(=O)N1CCN(Cc2cc3nc(-c4cccc5[nH]ncc45)nc(N4CCOCC4)c3s2)CC1 [Pictilisib] (partner 1 µM)
Method in brief: as §1

[6] = compound: O=C(O)c1ccc2c(c1)nc(Nc1cccc(Cl)c1)c1ccncc12 [Silmitasertib] + CC(C)C[C@H](NC(=O)[C@H](Cc1ccccc1)NC(=O)c1cnccn1)B(O)O [Bortezomib] (partner 0.002 µM)
Method in brief: as §1

[7] = compound: O=C(O)c1ccc2c(c1)nc(Nc1cccc(Cl)c1)c1ccncc12 [Silmitasertib] + CC1(C)CCC(c2ccc(Cl)cc2)=C(CN2CCN(c3ccc(C(=O)NS(=O)(=O)c4ccc(N[C@H](CCN5CCOCC5)CSc5ccccc5)c(S(=O)(=O)C(F)(F)F)c4)cc3)CC2)C1 [Navitoclax] (partner 0.5 µM)
Method in brief: as §1

[8] = compound: O=C(O)c1ccc2c(c1)nc(Nc1cccc(Cl)c1)c1ccncc12 [Silmitasertib] + CS(=O)(=O)CCNCc1ccc(-c2ccc3ncnc(Nc4ccc(OCc5cccc(F)c5)c(Cl)c4)c3c2)o1 [Lapatinib] (partner 2 µM)
Method in brief: as §1

[9] = compound: O=C(O)c1ccc2c(c1)nc(Nc1cccc(Cl)c1)c1ccncc12 [Silmitasertib] + O=C(c1cc(Cc2n[nH]c(=O)c3ccccc23)ccc1F)N1CCN(C(=O)C2CC2)CC1 [Olaparib] (partner 8 µM)
Method in brief: as §1

[10] = compound: O=C(O)c1ccc2c(c1)nc(Nc1cccc(Cl)c1)c1ccncc12 [Silmitasertib]
Method in brief: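 A plate was accepted only when its control CV was below 25% and the cells had doubled at least once. Viability is defined from nuclear counts as treated wells divided by vehicle wells, with the median taken across plates. That median covers lung cancer cell lines grown in 1536-well plates, dosed by pinning at five √10-spaced library-drug concentrations, and counted in MetaXpress from 4× Hoechst images after 5 days.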

| Cell Line | relative viability ([1]; first compound 0.04 µM) | relative viability ([1]; first compound 0.4 µM) | relative viability ([1]; first compound 1.265 µM) | relative viability ([1]; first compound 4 µM) | relative viability ([2]; first compound 0.04 µM) | relative viability ([2]; first compound 0.4 µM) | relative viability ([2]; first compound 1.265 µM) | relative viability ([2]; first compound 4 µM) | relative viability ([3]; first compound 0.04 µM) | relative viability ([3]; first compound 0.4 µM) | relative viability ([3]; first compound 1.265 µM) | relative viability ([3]; first compound 4 µM) | relative viability ([4]; first compound 0.04 µM) | relative viability ([4]; first compound 0.4 µM) | relative viability ([4]; first compound 1.265 µM) | relative viability ([4]; first compound 4 µM) | relative viability ([5]; first compound 0.04 µM) | relative viability ([5]; first compound 0.4 µM) | relative viability ([5]; first compound 1.265 µM) | relative viability ([5]; first compound 4 µM) | relative viability ([6]; first compound 0.04 µM) | relative viability ([6]; first compound 0.4 µM) | relative viability ([6]; first compound 1.265 µM) | relative viability ([6]; first compound 4 µM) | relative viability ([7]; first compound 0.04 µM) | relative viability ([7]; first compound 0.4 µM) | relative viability ([7]; first compound 1.265 µM) | relative viability ([7]; first compound 4 µM) | relative viability ([8]; first compound 0.04 µM) | relative viability ([8]; first compound 0.4 µM) | relative viability ([8]; first compound 1.265 µM) | relative viability ([8]; first compound 4 µM) | relative viability ([9]; first compound 0.04 µM) | relative viability ([9]; first compound 0.4 µM) | relative viability ([9]; first compound 1.265 µM) | relative viability ([9]; first compound 4 µM) | relative viability ([10]; 0.04 µM) | relative viability ([10]; 0.4 µM) | relative viability ([10]; 1.265 µM) | relative viability ([10]; 4 µM) |
| --- | --- | --- | --- | --- | --- | --- | --- | --- | --- | --- | --- | --- | --- | --- | --- | --- | --- | --- | --- | --- | --- | --- | --- | --- | --- | --- | --- | --- | --- | --- | --- | --- | --- | --- | --- | --- | --- | --- | --- | --- |
| Calu-6 | 1.04 | 0.862 | 0.878 | 0.49 | 0.915 | 0.721 | 0.727 | 0.527 | 0.963 | 0.83 | 0.846 | 0.616 | 0.984 | 0.938 | 0.755 | 0.571 | 0.99 | 0.934 | 0.628 | 0.359 | 1.13 | 0.868 | 0.824 | 0.602 | 1 | 0.783 | 0.661 | 0.374 | 1.13 | 0.945 | 0.761 | 0.51 | 0.654 | 0.28 | 0.445 | 0.39 | 1.14 | 0.898 | 0.885 | 0.663 |
| EBC-1 | 0.982 | 0.655 | 0.471 | 0.222 | 0.189 | 0.16 | 0.171 | 0.157 | 0.0961 | 0.0977 | 0.0913 | 0.0847 | 0.925 | 0.601 | 0.262 | 0.211 | 0.534 | 0.375 | 0.178 | 0.139 | 0.652 | 0.39 | 0.347 | 0.239 | 0.542 | 0.154 | 0.134 | 0.168 | 0.225 | 0.185 | 0.2 | 0.192 | 0.796 | 0.371 | 0.423 | 0.212 | 1.09 | 0.693 | 0.591 | 0.29 |
